The values below come from patent publication EP4644401A1, “ALLULOSE SYRUP WITH IMPROVED PROPERTY” (Samyang Corporation, priority 2022, dated 2024).

The data set can be described thus: Solubility analysis of allulose dimer crystals in water. Type of data set: physicochemical. The following applies: water as solvent, solvent temperature 25°C.

≈ marks a conversion by molar mass, not a printed value.

A word on the solubility: it is how much of the substance goes into solution per volume. High values mean a readily soluble substance, low ones a poorly soluble substance. As for `O=C(CO)[C@H](O)[C@H](O)[C@H](O)CO` [allulose], the solubility came to 340 mg/mL (≈ 1890 mM).
